Experimental data: patent US20090016989A1, “ANTIBODIES TO HUMAN SOMATOSTATIN RECEPTOR AND METHODS OF USE” (priority 2007, published 2009)

Legend:
Type in all cases: cell-based, human
BON cells [1] = assay: Guava Nexin apoptosis assay (Annexin V / 7-AAD); details: 10 μg/ml rabbit IgG or antibodies, 100 nM octreotide, % of Total
Protocol: Cells were then switched to growth media without FBS and allowed to grow for another 24 hours before applying treatments. Samples were collected and counted in accordance with Guava Technologies' Viacount Flex (Cat#4500-0110) instructions. At the end of each antibody treatment, cells were dissociated from the plate using 1× trypsin-EDTA (Invitrogen Cat#2520). […] Next, phosphate buffer solution (D-PBS) (Invitrogen Cat#14190-144) (Invitrogen) was used as the exchange buffer to resuspend the cell pellet. […] Detection was achieved by using Guava PCA96 instrument and data was analysed by using Guava Nexin software module as (Cat#0500-0250). […] Following the protocol for the Guava Nexin™ assay (Guava Technologies), two different dyes were used to stain for cells undergoing apoptosis: 7-AAD stains for dead and late apoptosis cells (upper right quadrant of each graph in FIG. 10), and Annexin V stains for cells undergoing apoptosis from the early stage (lower right quadrant of each graph in FIG. 10). […] Once every 24 hours for 72 hours (FIGS. 10B, 10C and 10D), cells were collected and tested for apoptosis status using the Guava Nexin™ assay (Guava Technologies).

[2] = tested on: sh-hSSTR subtype 5-BON cells; assay: Growth in tetracycline-controlled shRNA knock-down cells; details: FIG. 5
Text: To validate that cell growth inhibition is caused by the anti-hSSTR antibody in a subtype specific manner, BON cells were stably transfected with plasmids carrying short hairpin RNA shSSTR subtype 2 or shSSTR subtype 5 in which the expression of the shRNAs were under the control of tetracycline. Sh-hSSTR subtype 2 and sh-hSSTR subtype 5 destabilize the target receptor's messenger RNA and, consequently, knock down the expression of the target gene.

BON cells [3] = assay: MTS cell proliferation assay, growth doubling time
Protocol: The effects of anti-hSSTR subtype 2 and anti-hSSTR subtype 5 antibodies on cell proliferation were tested using CellTiter 96® Aqueous One Solution Cell Proliferation Assay (MTS) (Promega, Cat#G3581). The assay was performed to measure the growth doubling time for BON cells in vitro (FIG. 3, growth doubling time in hours is presented on the Y-axis). The growth doubling time for BON cells following treatment with rabbit IgG was around 28 to 30 hours (similar to vehicle alone). […] Cell growth was detected at 490 nm (colorimetric detection) by using instrument Victor 3V (Perkin Elmer) once every 24 hours in the duration of 96 hours.
The resulting maximal suppression in hours (20 hours) is designated as 100% of growth suppression. The difference measured in doubling time detected between experimental samples and untreated samples divided by the maximal suppression yields the percent growth suppression.
BON cells were seeded, grown and maintained in F12 HAM (Invitrogen, Cat#31765035)/D-MEM (Invitrogen, Cat#10567-014) (50/50) with 10% certified fetal bovine serum (FBS) (Invitrogen, Cat#16000-044) in 96-well cell culture dishes (Costar, Cat# 3590) at a density of 2500 cells/well. […] Cell growth was detected at 490 nm (colorimetric detection) by using instrument Victor 3V (Perkin Elmer) once every 24 hours in the duration of 96 hours.

BON cells [4] = assay: Cell number after 48-hour treatment (Viacount); details: after 2 days of daily treatment, 5 μg/ml antibody or rabbit IgG, 100 nM octreotide
Protocol: A serotonin ([…]) assay was performed using Serotonin EIA (Biosource, Cat# KAPL10-0900) to measure serotonin release by BON cells over a 48-hour period with or without treatment. […] After 24 hours, the BON cells were subjected to six different daily treatments (at maximum dosages) and grown in FBS-free cell growth media for 2 days in a sterile tissue culture chamber at 37° C. with 6% CO2. These six treatments were: […] The anti-hSSTR Abs (4)-(6) were antibodies produced in the experiment described in Example 1. At the end of each treatment, 1× Halt Protease Inhibitor cocktail (Pierce, Cat# 78415) was immediately added to each sample and the media was collected from each sample and used for Serotonin detection. Next, cells were dissociated from the plate using 2 ml of 1× trypsin-EDTA (Invitrogen Cat#2520) in cell growth media and incubated at 37° C. with 6% CO2 for 5 minutes. Subsequently, an additional 8 ml of cell growth media was added to neutralize trypsin-EDTA, and subjected to 1000 rpm at 4° C. in 15 ml Falcon tubes using Beckman table top centrifuge. Guava Technologies PCA-96 instrument (tabletop flow cytometer) and Viacount flex reagent (Guava Technologies, Cat# 4500-0100) were then used to determine the number of cells for the abovementioned treatments. The results were as follows: […]

In the case of C[C@@H](O)[C@@H]1NC(=O)[C@H](CCCCN)NC(=O)[C@@H](Cc2c[nH]c3ccccc23)NC(=O)[C@H](Cc2ccccc2)NC(=O)[C@@H](NC(=O)[C@H](N)Cc2ccccc2)CSSC[C@@H](C(=O)N[C@H](CO)[C@@H](C)O)NC1=O [octreotide], the “7-AAD+” value (BON cells [1]; 24 hours after treatment) is reported as 1.1%, the “Annexin V+” value (BON cells [1]; 24 hours after treatment) is reported as 4.3% and the “Early apoptotic cells (Lower Right Quadrant)” value (BON cells [1]; 24 hours after treatment) is reported as 3.3%. For the same compound, the “Late apoptotic cells (Upper Right Quadrant)” value (BON cells [1]; 24 hours after treatment) was 1.0%, the “Nuclear Debris (Upper Left Quadrant)” value (BON cells [1]; 24 hours after treatment) was 0.1% and the “7-AAD+” value (BON cells [1]; 48 hours after treatment) was 10.9%. For the same compound, the “Annexin V+” value (BON cells [1]; 48 hours after treatment) was 13.7%, the “Early apoptotic cells (Lower Right Quadrant)” value (BON cells [1]; 48 hours after treatment) was 3.8% and the “Nuclear Debris (Upper Left Quadrant)” value (BON cells [1]; 48 hours after treatment) was 1.0%. The “7-AAD+” value (BON cells [1]; 72 hours after treatment) was 19.8%, the “Annexin V+” value (BON cells [1]; 72 hours after treatment) was 26.9% and the “Early apoptotic cells (Lower Right Quadrant)” value (BON cells [1]; 72 hours after treatment) was 7.7%. For the same compound, the “Late apoptotic cells (Upper Right Quadrant)” value (BON cells [1]; 72 hours after treatment) was 19.2%, the “Nuclear Debris (Upper Left Quadrant)” value (BON cells [1]; 72 hours after treatment) was 0.6% and the “growth doubling time under octreotide compared to BON cells” value [2] was “did not change”. The “approximate EC50 (growth)” value (BON cells [3]; octreotide 0.5, 1, 10 to 50 nM, FIG. 5) was “single nM”, the doubling time (BON cells [3]; saturating octreotide (50 nM)) was about 50 h and the number of cells (BON cells [4]) was 7 million cells.
